For series [1], the system named is encapsulated ES cells. Put plainly: Three dimensional alginate poly-L-lysine encapsulated oligodendrocyte differentiation, immunofluorescence. The format is cell-based, mouse. To be noted: for O1 expression / MBP expression / CNPase expression: IMDM + RA 8 days then PPAR agonist; for CNPase expression: peak. How it is done: The alginate encapsulation process was done using the protocol setup by Maguire, T., et al., Biotechnol. Bioeng., 93(3):581-91(2006). Briefly, an alginate solution was generated by dissolving 2.2 g of alginate (Sigma-Aldrich, MW: 100,000-200,000 g/mol, GContent: 65%-70%) in 100 mL of Ca^2+ free DMEM, using a heated magnetic stir plate at a temperature of 45° C. The solution was then filtered using a 25-micron syringe filter (Fisher Brand, Pittsburgh, Pa.). A confluent monolayer of undifferentiated ES cells were removed following trypsin incubation, centrifuged for 10 min at 1,000 rpm, and resuspended in PBS. The cells were washed twice more with PBS, resuspended in 2 mL of their respective media (IMDM, IMDM+Retinoic Acid (RA) (1×10^−7M), DMEM/F12+N2) and both cell number and viability assessed using the method of trypan blue (Gibco) exclusion. To create the cell-alginate mixture, 1 mL of cell suspension with a density of 50×10^6 cells/mL was added to 9 mL of a 2.2% (w/v) alginate solution to yield a final cell density of 5×10^6 cells/mL and a final alginate concentration of 2.0% (w/v). This solution was transferred to a 10 mL syringe (BD Biosciences), which, in turn was connected to a syringe pump (KD Scientific, Holliston, Mass.). Alginate beads were generated using an electrostatic bead generator (Nisco, Zurich, Switzerland) at a flow rate of 40 mL/h, and an applied voltage of 6.5 kV, resulting in beads with a diameter of 500 μm. The beads were collected in a 200 mL bath of CaCl2 (100 mM) (Sigma-Aldrich), containing 145 mM NaCl (Sigma-Aldrich), and 10 mM MOPS (Sigma-Aldrich) and were left to polymerize for 10 minutes at room temperature. Beads were transferred to a tissue culture treated 1-25 flask (Falcon, BD Biosciences), following the polymerization step. The CaCl2 solution was removed using a 5 mL pipette, and the beads were washed with 5 mL of HEPES (Gibco). The HEPES was removed and the beads were re-suspended in 5 mL of poly-L-lysine (PLL) (Sigma-Aldrich, MW: 68,600 g/mol) (0.05% w/v) for 2 min. The PLL was then gently removed, replaced with HEPES to wash the beads and the beads were ultimately re-suspended in 5 mL of cell culture media. Media was changed every 4 days post-encapsulation. In all experimental conditions, monolayer culture configurations were used as controls.
Cells were fixed for immunofluorescence analysis on Days 8, 14, 18 and 22.
Cells were fixed before doing any immunofluorescence.
Specimens were excited using a 488 nm filter.

For series [2], the system named is ESD3 cells. Kind of series: Oil Red O staining of monolayer ESD3 cells. The format is cell-based, mouse. To be noted: 2D, by Day 30. How it is done:
After the cells were fixed using 4% paraformaldehyde, they were then washed twice with PBS and rinsed once with 60% isopropanol (Sigma) for 5 minutes. A 0.18% Oil Red O (Sigma) solution in diH2O was then added to the cells for 10 minutes (diluted down from a 0.3% stock solution of Oil Red O in 99% isopropanol and filtered through filter paper). The cells were then rinsed several times with PBS (30 second rinses) until all excess Oil Red O was removed. […] Images were taken using an Olympus CKX-41 microscope with an Olympus Magnafire Color Camera and Magnafire software v.2.1C.
Oil Red O is a fat-soluble dye used for the staining of neutral triglycerides and lipids and among other things is used to detect myelin and myelin degradation products (Boven, L. A., et al., Brain, 129(Pt 2):517-526 (2006); Zou, T., et al., J. Neuropathol. Exp. Neurol., 65(1):78-86 (2006)).

The test system of series [3] is ESD3 cells. To be noted: for cell morphology / CNPase expression over time / O1 expression over time: 2D; for cell morphology: Day 30, after 14 days of agonist exposure; for CNPase expression over time / O1 expression over time: agonist from Day 16 to Day 30. The text has this: In order to induce differentiation, cells were replated into gelatin coated 6 well plates (Biocoat, BD-Biosciences, Bedford, Mass.) at a density of 1×10^4 cells/cm^2. Cells were placed in DMEM/F12 (Invitrogen, Carlsbad, Calif.) media supplemented with 1% N-2 (Invitrogen—contains human transferrin, insulin, progesterone, putrescine and selenite), 100 U/mL penicillin and 100 U/mL streptomycin for 8 days. Every 2 days, media was aspirated and replaced with fresh media. On day 8, the cells were replated at a density of 0.5×10^4 cells/cm^2 into 24 well plates (Falcon, BD Biosciences, San Jose, Calif.) that were precoated with 0.1% Gelatin (Sigma-Aldrich) for 1 hour at 37° C. To aid in cell attachment, 10 ng/ml basic fibroblast growth factor (bFGF) was added. From day 8 to day 16, 1% Fetal Bovine Serum (FBS-Invitrogen) is added. Every 2 days, media was aspirated and replaced with fresh media.
On day 16, the cells are replated at a density of 0.5×10^4 cells/cm^2 into the same differentiation media supplemented with either 10 μM PPAR alpha (Sigma-Aldrich: WY-14643), 1 μM PPAR delta (Sigma-Aldrich: GW0742), or 10 μM PPAR gamma (Sigma-Aldrich: GW1929). All three agonists were dissolved in 0.05% DMSO (Sigma-Aldrich). Every 2 days, media was aspirated and replaced with fresh media with agonists. Cells were fixed for immunofluorescence analysis on Days 22, 26 and 30.
Cells were fixed before doing any immunofluorescence. This was done by first washing the cells 3 times in Tris Buffered Saline (TBS) followed by incubating the cells in 4% paraformaldehyde (Sigma-Aldrich) for 15 minutes at room temperature. The cells were again washed 3 times in TBS for 5 minutes at room temperature). In order to reduce non-specific binding of the antibodies to proteins on/within the cells, they were first blocked for 45 minutes at room temperature by incubating the cells with TBS, 10% goat serum (Invitrogen), 1% Bovine Serum Albumin (BSA-Sigma) and depending on if the protein in question is intracellular, 0.1% Triton X-100. The cells were then incubated overnight at 4° C. with the respective primary antibody in TBS, 1% goat serum and if the protein in question was intracellular, 0.1% Triton X-100. The antibodies used were: 5 μg/ml mouse anti-A2B5 IgM (Chemicon), 2 μg/ml mouse anti-O1 IgM (R&D Systems, Minneapolis, Minn.), 12.6 μg/ml mouse anti-CNPase (2′, 3′-cyclic nucleotide 3′-phosphodiesterase) IgG1 (Sigma) and 8 μg/ml rabbit anti-Myelin Basic Protein IgG (MBP—abcam, Cambridge, Mass.). To account for non-specific binding, isotype controls were used for each antibody: for A2B5 and O1—mouse IgM (Chemicon), for CNPase—mouse IgG1 (BD Biosciences) and for MBP—rabbit IgG (Invitrogen). The cells were washed 3 times for 5 minutes in TBS and if the protein in question was intracellular, 0.1% […]. The cells were then incubated for 1 hour at room temperature with the respective secondary in TBS and if the protein in question is intracellular, 0.1% Triton X-100. The secondaries used were: for A2B5 and O1—Alexa Fluor 488 goat anti-mouse IgM (Invitrogen—1:500), CNPase—Alexa Fluor 488 goat anti-mouse IgG1 (Invitrogen—1:500) and MBP—Alexa Fluor 488 goat anti-rabbit IgG (Invitrogen—1:500). The cells were then washed 2 times in TBS for 5 minutes at room temperature. The cells were counterstained with Hoechst 33342 (Invitrogen) for 10 minutes at room temperature (1 μg/ml).
Fluorescent images were acquired using a computer interfaced inverted Olympus IX70 microscope. Specimens were excited using a 488 nm filter. Fluorescent intensity values were determined for each cell using Olympus Microsuite™ software. Experimental intensity values for each cell were calculated after subtracting the average intensity of the isotype control.

Series [4] deals with encapsulated ES cells. Kind of series: Intracapsular immunofluorescence of neural lineage markers and albumin in encapsulated ES cells. It is filed as cell-based, mouse. The note with it: 2.2% alginate, 10^-7 M retinoic acid.
Procedure: Alginate solution was prepared by dissolving 2.2 g of alginic acid sodium salt (MW: 100,000-200,000 g/mol, G Content: 65%-70%, Sigma-Aldrich) in 100 mL of Ca^2+ free DMEM (Gibco), using a heated magnetic stir plate at a temperature of 65° C. The solution was then filtered using a 45 μm syringe filter (Fisher Scientific, Pittsburgh, Pa.). To create the cell-alginate mixture, 1 mL aliquot of cell suspension with a seeding density of 5×10^7 cells/mL was added to 9 mL of either 1.2%, 1.7%, 2.2% or 2.5% (w/v) alginate solution to yield a final cell seeding density of 5×10^6 cells/mL. This solution was transferred to a 10 mL syringe, and was connected to a syringe pump (KD Scientific, MA). Alginate beads were generated using an electrostatic bead generator (Nisco, Zurich, Switzerland) at a flow rate of 40 mL/h, and an applied voltage of 6.4 kV. The beads were extruded into a 200 mL bath of CaCl2 (100 mM), containing 145 mM NaCl, and 10 mM MOPS (all from Sigma-Aldrich) and were left to polymerize for 10 min at room temperature (Maguire, T., et al., Biotechnol. Bioeng., 93(3):581-591 (2006)). Beads were then transferred to a tissue culture treated T-25 flask. The CaCl2 solution was removed using a 5 mL pipette, and the beads were washed with 5 mL of HEPES (Gibco). The HEPES was removed and the beads were resuspended in 5 mL of poly-L-lysine (PLL) (Sigma-Aldrich, MW 68,600 g/mol) (0.05% w/v) for 2 min. The PLL was then gently removed, replaced with HEPES to wash the beads and the beads were ultimately resuspended into 5 mL of IMDM medium (Invitrogen, Carlsbad, Calif.) media with and without 10^−7M trans-retinoic acid (Bain, G., et al., Dev. Biol., 168(2):342-357 (1995)). Media was changed at days 4, 8, 12, 16 and 20 post-encapsulation.
To assess the effect of RA on lineage commitment within the alginate microenvironment, individual cells were examined within the encapsulated population using indirect immunofluorescence analysis with a panel of neural lineage specific antibodies, including neurofilament 160 kD (neuronal marker), O1 (oligodendrocyte marker) and GFAP (astrocyte marker). Specific antibody binding was assessed relative to a non-specific immunoglobulin control.
After assessing the neural specific markers, the inventors also investigated the effects of different alginate concentrations, e.g., 1.2%, 1.7% and 2.5%, on neural differentiation in the alginate encapsulation microenvironment.
Encapsulated cells were washed with PBS (Gibco) and fixed on days 4, 8, 12, 16 and 20 with 4% paraformaldehyde to evaluate surface proteins or together with 0.25% Triton-X to evaluate intracellular protein expression. […]
Series [5] has as its system encapsulated ES cells. Kind of series: Intracapsular aggregate size of encapsulated ES cells. The format is cell-based, mouse. The note with it: in the presence of retinoic acid, entire differentiation period.
Procedure: Bright field images were acquired using an Olympus IX70 microscope and an Olympus digital camera. For each microcapsule, 5 z-sectional images were taken at 50 μm intervals to avoid multiple quantification of the same aggregate, for a total depth of 250 μm. Image quantification was conducted using Olympus Microsuite imaging analysis software.
Series [6] has as its system ES cell line D3. Kind of series: Cell number and viability of alginate-encapsulated ES cells (trypan blue after depolymerization). The format is cell-based, mouse. To be noted: 2.2% w/v alginate, 5×10^6 cells/mL, with RA.
Procedure: All cell cultures were incubated in a humidified 37° C., 5% CO2 environment. The ES cell line D3 (ATCC, Manassas, Va.) was maintained in an undifferentiated state in T-75 gelatin-coated flasks (Biocoat, BD-Biosciences, Bedford, Mass.) in Knockout Dulbecco's modified Eagles medium (Gibco, Grand Island, N.Y.) containing 15% knockout serum (Gibco), 4 mM L-glutamine (Gibco), 100 U/ml penicillin (Gibco), 100 U/ml streptomycin (Gibco), 10 mg/ml gentamicin (Gibco), 1,000 U/ml ESGRO™ (Chemicon, Temecula, Calif.) and 0.1 mM 2-mercaptoethanol (Sigma-Aldrich, St. Louis, Mo.). Media was changed every two days until plates were confluent. ES cultures were split and passaged every 6 days. Following media aspiration, cells were washed with 10 mL of phosphate buffered solution (PBS) (Gibco), detached using 3 mL of trypsin EDTA (Gibco) for 3 minutes, and subsequently 12 mL of Knockout DMEM was added. Cells were then replated in gelatin-coated T-75 flasks at a density of 1 million cells/mL and only passages 10 through 25 were used in the experiments. In order to induce differentiation, cells were cultured in Iscove's modified Dulbecco's medium (Gibco) containing 20% fetal bovine serum (Gibco), 4 mM L-glutamine (Gibco), 100 U/ml penicillin (Gibco), 100 U/ml streptomycin (Gibco), 10 mg/ml gentamicin (Gibco) in the presence or absence of 10^−7M trans-retinoic acid (Sigma-Aldrich). […]
In series [7] the test system is encapsulated ES cells. Kind of series: Three dimensional alginate poly-L-lysine encapsulated oligodendrocyte differentiation, immunofluorescence. The format is cell-based, mouse. To be noted: 3D encapsulated, IMDM with Retinoic Acid, Day 12.

SMILES strings stand for the structures.

Turning to `CN(CCOc1ccc(C[C@H](Nc2ccccc2C(=O)c2ccccc2)C(=O)O)cc1)c1ccccn1` [PPAR gamma, GW1929], the O1 expression entry in series [1] (3D, day 14) is given as “about 42%”. Besides, the MBP expression entry in series [1] (3D, day 18) was “about 74%”. Besides, in series [1] (3D, day 22), the MBP expression result is “about 45%”, the O1 expression result is “about 22%” and the CNPase expression was approximately 53%. The “Oil Red O stain compared to control” value in series [2] was “significantly higher than control”. For the same molecule, in series [3], the “cell death compared to all other cases” value was “significant increase in cell death”, the cell morphology result is “two distinct morphologies”, the “CNPase expression over time” value is on record as “large increase over the initial 10 days thereafter stabilizing” and the “O1 expression over time” value is on record as “gradually tapers over the 14 day period”.
In the case of `CC1=C(/C=C/C(C)=C/C=C/C(C)=C/C(=O)O)C(C)(C)CCC1` [retinoic acid, trans-retinoic acid], the “A2B5 expression (highest, as stated in text)” value in series [1] (3D encapsulated, exposure to RA for 16 days) was 44%. Also, in series [4], the “encapsulated cells stained positively for intracellular albumin” value is given as “less than 5%”, the “maximum percentage of encapsulated cells positively stained for GFAP” value turned out to be 38.6%, the “maximum percentage of encapsulated cells positively stained for NF 150 kD” value was 41.9% and the “maximum percentage of encapsulated cells positively stained for O1” value was found to be 32.3%. Besides, the “size of individual cells” value in series [5] is “approximately 13 μm”. Also, in series [6] (20-day culture), the “final density relative to the initial seeding density” value is 2.5 times. The Cell viability entry in series [6] (throughout the culture period) is “greater than 95%”. In series [7], this molecule showed a CNPase expression of 32% and an O1 expression of 32%.
Consider `Cc1cc(SCc2sc(-c3ccc(C(F)(F)F)c(F)c3)nc2C)ccc1OCC(=O)O` [PPAR delta, GW0742], for which the “differentiation at various concentrations” value in series [1] (3D, 0.1 μM, 1 μM and 10 μM) is reported as “No significant differences”. In addition, in series [1] (3D, day 22), the MBP expression is reported as approximately 80% and the CNPase expression entry is reported as “about 40%”. Also, in series [2], the “Oil Red O stain compared to control” value is reported as “significantly higher than control”. Further, in series [3], the cell morphology result is on record as “majority of cells have extended processes with some having secondary branching”, the “CNPase expression over time” value is given as “gradually increases over the 14 day period” and the “O1 expression over time” value was “drops sharply over the last 8 days”.
Turning to `Cc1cccc(Nc2cc(Cl)nc(SCC(=O)O)n2)c1C` [PPAR alpha, WY-14643], the “MBP expression over time” value in series [1] (3D, IMDM + RA 8 days then PPAR agonist for 14 days) is on record as “stays pretty constant over the time period”. Moreover, the O1 expression in series [1] (3D, day 18) is approximately 35%. In series [1] (3D, day 22), the O1 expression is recorded as approximately 15% and the CNPase expression entry is “about 60%”. In series [2], the “Oil Red O stain compared to control” value is listed as “minimal effect compared to control”. Also, in series [3], the cell morphology entry was “majority of cells have extended processes with some having secondary branching”; the “CNPase expression over time” value was “increases over the initial 6 days and stabilizes for the remaining 8 days”; the “O1 expression over time” value is on record as “drops consistently over the 14 day period”.
